From US12186401B2, “Amide-based proteolysis modulators of B-rapidly accelerated fibrosarcoma (BRAF) and associated uses” (Ontario Institute for Cancer Research (OICR), priority 2019, dated 2025) come the findings set out here.

Bounds are passed on as bounds.

One test deals with T1, ARAF (Homo sapiens, UniProt P10398).
T1 sequence (P10398 1-606): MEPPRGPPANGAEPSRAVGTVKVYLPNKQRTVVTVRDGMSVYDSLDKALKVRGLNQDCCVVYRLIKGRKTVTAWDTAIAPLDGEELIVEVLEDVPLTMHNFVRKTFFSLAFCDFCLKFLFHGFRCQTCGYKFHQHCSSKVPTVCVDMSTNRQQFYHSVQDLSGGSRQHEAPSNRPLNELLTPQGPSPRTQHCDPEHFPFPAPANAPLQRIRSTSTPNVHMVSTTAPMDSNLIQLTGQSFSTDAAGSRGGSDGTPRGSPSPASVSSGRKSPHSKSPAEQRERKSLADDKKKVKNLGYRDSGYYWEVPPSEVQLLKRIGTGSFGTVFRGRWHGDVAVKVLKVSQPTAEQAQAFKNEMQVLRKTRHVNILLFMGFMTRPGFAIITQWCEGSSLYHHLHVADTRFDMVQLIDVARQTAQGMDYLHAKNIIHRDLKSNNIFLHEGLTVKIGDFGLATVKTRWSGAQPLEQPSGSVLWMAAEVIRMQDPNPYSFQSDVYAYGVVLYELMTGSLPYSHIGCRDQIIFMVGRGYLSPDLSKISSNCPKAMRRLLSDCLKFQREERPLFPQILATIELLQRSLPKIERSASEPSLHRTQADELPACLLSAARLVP
Kind of test: Kinase inhibition assay ARAF (similar protocol). The test is classed as biochemical. The protocol: (§1) b-Raf (V599E) (h) was incubated with 25 mM Tris/HCl pH 7.5, 0.2 mM EGTA, 10 mM DTT, 0.01% Triton X-100, 0.5 mM, sodium orthovandate, 0.5 mM […], 1% glycerol, 34 nM unactive MEK1, 69 nM unactive MAPK2, 0.5 mg/mL myelin basic protein, and 10 mM Magnesium acetate and […] (specific activity and concentration as required). The reaction was initiated by the addition of the Mg/ATP mix. After incubation for 40 minutes at room temperature, the reaction was stopped by the addition of phosphoric acid to a concentration of 0.5%. 10 μL of the reaction was then spotted onto a P30 filtermat and washed four times for 4 minutes in 0.425% phosphoric acid and once in methanol prior to drying and scintillation counting. Similar protocols were used for other kinase assays employing the kinase of interest to generate the data in Table 1.

The target of a further test is CRAF (Homo sapiens, UniProt P04049). Kind of test: Kinase inhibition assay CRAF (similar protocol). Type of test: biochemical. The protocol: as §1
In the next test the target is T2, BRAF^V600E (Homo sapiens, UniProt P15056, V600E).
T2 construct: A375 or SK-Mel-28 cells were obtained from ATCC; host or cells: A375 or SK-Mel-28
The test is described as follows: Cellular degradation assay, Western blot of BRAF^V600E. The settings on record: for degradation of BRAF^V600E by immunoblot (FIGS. 4 and 5): A375 human melanoma cells, 24 hrs; for DCmax(%) BRAF^V600E / DC50: Table 1, cells treated 24 hours, Western blot; for DC50: read-out: DC50(nM) BRAF^V600E. The test is classed as cell-based. The protocol: Cell culture and compound treatment: A375 or SK-Mel-28 cells were obtained from ATCC and cultured in Dulbecco's Modified Eagle Media (DMEM) supplemented with 10% FBS, penicillin and streptomycin, at 37° C., 5% CO2. Cells grown in 6-well plates were treated for 24 hours with test compounds (solubilized in DMSO) or 0.1% DMSO vehicle control. Cells were harvested by first washing with 1× phosphate-buffered saline (PBS), then scrapping into 1 ml of PBS supplemented with 1 mM phenylmethylsulfonylflouride (PMSF). Cell pellets were obtained after a centrifugation at 300-350×g for 2 min, and immediately snap frozen in liquid nitrogen.
Cell lysis and Western blot analysis: Cell pellets were thawed and lysed by pipetting in lysis buffer (50 mM HEPES (pH 7.4), 150 mM NaCl, 5 mM EDTA, 0.5% NP-40, 5 mM NaF, 10% glycerol), with Roche protease inhibitor cocktail (5056489001) and phosphatase inhibitor cocktail PhosStop (4906845001) added fresh before use. The whole cell lysate was clarified by centrifugation at 15,000-20,000×g for 20 min and supernatant was collected. Total protein concentration in the clarified lysate was determination by Bradford assay (Bio-Rad), and 30-50 ug of protein was separated through SDS-PAGE, transferred onto nitrocellulose membrane and subject to standard immunoblotting protocol. Band intensities were quantified by Bio-Rad Image Lab software. Antibodies to B-Raf (sc-5284), A-Raf (sc-166771), phosphor MEK1/2, pS218/222 (sc-7995), phosphor ERK1/2 (sc-7383) were purchased from Santa Cruz; C-Raf (9422), MEK1/2 (9122), ERK1/2 (9102) from Cell Signaling; p27 (610242) from BD Biosciences. Antibody to the loading control α-tubulin was obtained from Sigma-Aldrich (6199).
In general terms: A western blot detects proteins with antibodies after separation by electrophoresis.

The target in another test is B-Raf (V600E) (h) (Homo sapiens, UniProt P15056, V600E). The test is described as follows: Kinase inhibition assay B-Raf (V600E) (h), radiometric 33P-ATP filter assay. The test is classed as biochemical. To be noted: read-out: IC50(nM) BRAF^V600E. The protocol: as §1
For the next test, the target named is BRAF (Homo sapiens, UniProt P15056). Kind of test: Kinase inhibition assay BRAF (similar protocol). Type of test: biochemical. The protocol: as §1
Chain of BRAF (P15056 whole entry): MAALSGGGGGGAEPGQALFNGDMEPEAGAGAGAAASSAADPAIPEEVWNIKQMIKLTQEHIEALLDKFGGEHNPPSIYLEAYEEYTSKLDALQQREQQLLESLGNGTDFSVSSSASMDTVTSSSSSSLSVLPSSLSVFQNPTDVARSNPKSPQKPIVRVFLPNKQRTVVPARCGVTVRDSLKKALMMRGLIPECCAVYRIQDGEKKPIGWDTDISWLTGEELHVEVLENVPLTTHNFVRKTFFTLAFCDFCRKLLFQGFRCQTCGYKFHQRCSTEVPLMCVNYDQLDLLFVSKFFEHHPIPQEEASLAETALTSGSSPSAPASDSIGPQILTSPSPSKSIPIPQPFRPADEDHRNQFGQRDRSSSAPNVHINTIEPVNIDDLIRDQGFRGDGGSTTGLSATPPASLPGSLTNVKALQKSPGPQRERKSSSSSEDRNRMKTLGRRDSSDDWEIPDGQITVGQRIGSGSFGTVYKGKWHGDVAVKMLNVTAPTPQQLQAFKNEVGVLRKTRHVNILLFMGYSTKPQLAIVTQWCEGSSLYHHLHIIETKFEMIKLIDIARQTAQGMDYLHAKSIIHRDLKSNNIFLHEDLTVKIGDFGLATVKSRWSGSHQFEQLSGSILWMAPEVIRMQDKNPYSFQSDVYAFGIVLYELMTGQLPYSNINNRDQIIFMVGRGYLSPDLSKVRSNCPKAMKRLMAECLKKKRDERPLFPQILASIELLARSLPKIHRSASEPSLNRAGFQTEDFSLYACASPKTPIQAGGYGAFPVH

T2 sequence (P15056 whole entry V600E): as the sequence (P15056 whole entry) above, with V600E counted along it
Chain of B-Raf (V600E) (h) (P15056 whole entry V600E): as the sequence (P15056 whole entry) above, with V600E counted along it
Chain of CRAF (P04049 whole entry): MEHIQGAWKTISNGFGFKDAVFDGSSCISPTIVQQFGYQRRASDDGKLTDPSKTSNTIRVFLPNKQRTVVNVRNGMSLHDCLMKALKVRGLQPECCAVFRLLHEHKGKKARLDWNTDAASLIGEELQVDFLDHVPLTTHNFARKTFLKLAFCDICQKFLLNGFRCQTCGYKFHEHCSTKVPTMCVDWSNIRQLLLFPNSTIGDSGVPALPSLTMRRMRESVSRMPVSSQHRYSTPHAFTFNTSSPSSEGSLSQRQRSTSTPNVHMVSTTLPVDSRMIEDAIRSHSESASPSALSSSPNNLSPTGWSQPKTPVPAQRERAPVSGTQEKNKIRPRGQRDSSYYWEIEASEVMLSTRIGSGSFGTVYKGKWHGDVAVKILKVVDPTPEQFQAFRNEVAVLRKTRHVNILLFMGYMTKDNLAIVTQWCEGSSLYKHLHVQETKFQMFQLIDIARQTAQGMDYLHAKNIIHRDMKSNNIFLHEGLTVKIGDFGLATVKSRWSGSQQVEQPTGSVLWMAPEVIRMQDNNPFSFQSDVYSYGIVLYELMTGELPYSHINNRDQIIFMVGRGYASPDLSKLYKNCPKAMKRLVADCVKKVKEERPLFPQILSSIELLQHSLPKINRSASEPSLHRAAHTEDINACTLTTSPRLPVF

A word on the IC50: it is the point on the concentration scale where inhibition reaches its midpoint. As for `CCCS(=O)(=O)Nc1ccc(F)c(-n2cc(-c3cncnc3)c3nc(N(C)C4CCN(C(=O)CCOCCOCCOCCNc5cccc6c5C(=O)N(C5CCC(=O)NC5=O)C6=O)CC4)ccc32)c1F` (centres unmarked) [Entry 2], the values for the IC50 at ARAF, at CRAF and at B-Raf (V600E) (h) were above 10000 nM, 22 nM and 47 nM, respectively. Moreover, the “degradation of BRAF^V600E by immunoblot (FIGS. 4 and 5)” value (shortened to “degradation … (FIGS. 4 and 5)”) at BRAF^V600E (listed as Pmd-PEG3-Dabrafenib#1) is given as “No degradation”. In addition, on BRAF^V600E, the “DCmax(%) BRAF^V600E” value is 0%.

As to `CCCS(=O)(=O)Nc1ccc(F)c(-n2cc(-c3cncnc3)c3nc(N(C)C4CCN(CC)CC4)ccc32)c1F` [Entry 15, N-[3-[5-[(1-ethylpiperidin-4-yl)-methylamino]-3-pyrimidin-5-ylpyrrolo[3,2-b]pyridine-1-yl]-2,4-difluorophenyl]propane-1-sulfonamide, reference compound], the IC50 on ARAF was 323 nM; against CRAF it was 64 nM; on B-Raf (V600E) (h), 31 nM. Moreover, on BRAF^V600E, the “DCmax(%) BRAF^V600E” value came out at 0%.

As a reminder, the DC50 is the concentration at which degradation of the target reaches its halfway point. As to `CCCS(=O)(=O)Nc1ccc(F)c(-n2cc(-c3cncnc3)c3nc(N(C)C4CCN(C(=O)CCOCCOCCOCCNc5cccc6c5C(=O)N(C5CCC(=O)NC5=O)C6=O)CC4)ccc32)c1F` (centres unmarked) [Entry 16, N-(3-(5-((1-(3-(2-(2-(2-((2-(2,6-dioxopiperidin-3-yl)-1,3-dioxoisoindolin-4-yl)amino)ethoxy)ethoxy)ethoxy)propanoyl)piperidin-4-yl)(methyl)amino)-3-(pyrimidin-5-yl)-1H-pyrrolo[3,2-b]pyridin-1-yl)-2,4-difluorophenyl)propane-1-sulfonamide], the figures for the IC50 against ARAF, at CRAF and on B-Raf (V600E) (h) were above 10000 nM, 532 nM and 65 nM, respectively. The “degradation … (FIGS. 4 and 5)” value on BRAF^V600E was “Degradation of BRAF^V600E was observed”. Besides, at BRAF^V600E, the “DCmax(%) BRAF^V600E” value is on record as 60%. Besides, on BRAF^V600E, the DC50 amounted to 10 nM.

Turning to `CCCS(=O)(=O)Nc1ccc(F)c(-n2cc(-c3cncnc3)c3nc(N(C)C4CCN(C(=O)CCOCCOCCOCCOCCOCCNc5cccc6c5C(=O)N(C5CCC(=O)NC5=O)C6=O)CC4)ccc32)c1F` (centres unmarked) [Entry 18, N-(3-(5-((1-(1-((2-(2,6-dioxopiperidin-3-yl)-1,3-dioxoisoindolin-4-yl)amino)-3,6,9,12,15-pentaoxaoctadecan-18-oyl)piperidin-4-yl)(methyl)amino)-3-(pyrimidin-5-yl)-1H-pyrrolo[3,2-b]pyridin-1-yl)-2,4-difluorophenyl)propane-1-sulfonamide], the IC50 against ARAF is 3620 nM; against CRAF, 223 nM; at B-Raf (V600E) (h) it was 25 nM; against BRAF, 66 nM. Moreover, on BRAF^V600E, the “degradation … (FIGS. 4 and 5)” value is “Degradation of BRAF^V600E was observed”. Also, the “DCmax(%) BRAF^V600E” value at BRAF^V600E worked out at 73%. The DC50 at BRAF^V600E was 50 nM.

On ARAF, `CCCS(=O)(=O)Nc1ccc(F)c(-n2cc(-c3cncnc3)c3nc(N(C)C4CCN(C(=O)CCOCCOCCOCCOCCOCCOCCNc5cccc6c5C(=O)N(C5CCC(=O)NC5=O)C6=O)CC4)ccc32)c1F` (centres unmarked) [Entry 19, N-(3-(5-((1-(1-((2-(2,6-dioxopiperidin-3-yl)-1,3-dioxoisoindolin-4-yl)amino)-3,6,9,12,15,18-hexaoxaheneicosan-21-oyl)piperidin-4-yl)(methyl)amino)-3-(pyrimidin-5-yl)-1H-pyrrolo[3,2-b]pyridin-1-yl)-2,4-difluorophenyl)propane-1-sulfonamide] gave an IC50 of 6550 nM. The same compound showed an IC50 against CRAF of 542 nM. Moreover, on BRAF^V600E, the “degradation … (FIGS. 4 and 5)” value is reported as “Degradation of BRAF^V600E was observed”; the “DCmax(%) BRAF^V600E” value was found to be 60%; the DC50 was 100 nM. In addition, the IC50 at B-Raf (V600E) (h) was 83 nM.

Compound `CCCS(=O)(=O)Nc1ccc(F)c(-n2cc(-c3cncnc3)c3nc(N(C)C4CCN(C(=O)CCOCCOCCOCCOCCOCCOCCOCCOCCNc5cccc6c5C(=O)N(C5CCC(=O)NC5=O)C6=O)CC4)ccc32)c1F` (centres unmarked) [Entry 20, N-(3-(5-((1-(1-((2-(2,6-dioxopiperidin-3-yl)-1,3-dioxoisoindolin-4-yl)amino)-3,6,9,12,15,18,21,24-octaoxaheptacosan-27-oyl)piperidin-4-yl)(methyl)amino)-3-(pyrimidin-5-yl)-1H-pyrrolo[3,2-b]pyridin-1-yl)-2,4-difluorophenyl)propane-1-sulfonamide] registered an IC50 against ARAF of 4910 nM. The IC50 against CRAF was found to be 592 nM. Moreover, at BRAF^V600E, the “degradation … (FIGS. 4 and 5)” value is reported as “Degradation of BRAF^V600E was observed”; the “DCmax(%) BRAF^V600E” value is 40%; the DC50 was determined as 75 nM. Further, the IC50 at B-Raf (V600E) (h) was 85 nM.

At ARAF, `CCCS(=O)(=O)Nc1ccc(F)c(-n2cc(-c3cncnc3)c3nc(N(C)C4CCN(C(=O)CCC(=O)NCCCOCCOCCOCCCNc5cccc6c5C(=O)N(C5CCC(=O)NC5=O)C6=O)CC4)ccc32)c1F` (centres unmarked) [Entry 21, 4-(4-((1-(2,6-Difluoro-3-(propylsulfonamido)phenyl)-3-(pyrimidin-5-yl)-1H-pyrrolo[3,2-b]pyridin-5-yl)(methyl)amino)piperidin-1-yl)-N-(3-(2-(2-(3-((2-(2,6-dioxopiperidin-3-yl)-1,3-dioxoisoindolin-4-yl)amino)propoxy)ethoxy)ethoxy)propyl)-4-oxobutanamide] displayed an IC50 of 3340 nM. For the same compound, at CRAF, the IC50 stood at 468 nM. At BRAF^V600E, the “degradation … (FIGS. 4 and 5)” value is on record as “Degradation of BRAF^V600E was observed”; the “DCmax(%) BRAF^V600E” value worked out at 29%; the DC50 was found to be 20 nM. On B-Raf (V600E) (h), the IC50 was found to be 82 nM.

In the case of `CC(C)(C)c1nc(-c2cccc(NS(=O)(=O)c3c(F)cccc3F)c2F)c(-c2ccnc(N)n2)s1` [dabrafenib, reference compound], at BRAF^V600E (dabrafenib 20 nM, PROTAC inhibitors 50 nM), the “degradation of BRAF^V600E by immunoblot (FIG. 3A)” value was “no degradation”.
